According to patent US9868738B2, “Diazine-fused amidines as BACE inhibitors, compositions, and their use” (Merck Sharp & Dohme Corp., priority 2014, dated 2018):
pKi: −log10 of the molar value.

Legend:
[1] = biological target: soluble human BACE1 catalytic domain (Homo sapiens (Human), UniProt P56817); assay: BACE-1 Ki Assay (BACE-1 HTRF FRET Assay); format: biochemical; conditions: Ki calculated from IC50 using the Cheng-Prusoff equation; QSY7-APPswe-Eu substrate 200 nM, pH 5.0
[2] = biological target: purified human autoBACE-2 (Homo sapiens (Human), UniProt Q9Y5Z0); assay: BACE-2 Assay (BACE-HTRF assay); format: biochemical; conditions: Ki calculated from IC50 using the Cheng-Prusoff equation; QSY7-EISEVNLDAEFC-Eu-amide substrate 200 nM, pH 5.0
Chain of purified human autoBACE-2 (Q9Y5Z0 63-473 limits assumed): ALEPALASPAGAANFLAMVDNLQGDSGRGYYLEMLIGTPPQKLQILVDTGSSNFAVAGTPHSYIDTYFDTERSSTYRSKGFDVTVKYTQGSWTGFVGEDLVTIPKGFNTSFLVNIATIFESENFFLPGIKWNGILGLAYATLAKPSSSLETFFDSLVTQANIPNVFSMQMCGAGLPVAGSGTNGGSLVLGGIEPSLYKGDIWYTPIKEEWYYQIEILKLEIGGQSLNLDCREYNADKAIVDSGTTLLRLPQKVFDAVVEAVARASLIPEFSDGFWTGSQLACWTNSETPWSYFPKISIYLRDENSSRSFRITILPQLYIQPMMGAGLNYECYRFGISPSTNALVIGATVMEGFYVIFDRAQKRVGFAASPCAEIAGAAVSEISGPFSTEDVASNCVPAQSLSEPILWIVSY

Chain of soluble human BACE1 catalytic domain (P56817 75-416): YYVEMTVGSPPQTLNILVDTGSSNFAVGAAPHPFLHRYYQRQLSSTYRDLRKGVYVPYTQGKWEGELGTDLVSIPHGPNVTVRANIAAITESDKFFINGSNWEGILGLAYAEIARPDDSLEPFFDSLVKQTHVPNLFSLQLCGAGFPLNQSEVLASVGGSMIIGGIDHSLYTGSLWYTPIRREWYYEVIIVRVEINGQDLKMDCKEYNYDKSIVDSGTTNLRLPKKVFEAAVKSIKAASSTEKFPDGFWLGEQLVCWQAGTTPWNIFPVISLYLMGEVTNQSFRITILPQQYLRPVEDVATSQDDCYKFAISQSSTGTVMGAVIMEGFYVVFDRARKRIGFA

Row | SMILES | pKi [1] | pKi [2]
1 | Cc1ncc2c(n1)C[C@@](C)(c1sc(-c3cccc(-c4ncno4)c3)cc1Cl)NC2=N [Example 29, (7S)-7-{3-chloro-5-[3-(1,2,4-oxadiazol-5-yl)phenyl]thiophen-2-yl}-2,7-dimethyl-7,8-dihydropyrido[4,3-d]pyrimidin-5(6H)-imine] | 6.32 | 7.10
2 | C[C@@]1(c2cc(-c3cncc(C#N)c3)ccc2F)Cc2ncncc2C(=N)N1 [Example 9, 5-{4-fluoro-3-[(7S)-5-imino-7-methyl-5,6,7,8-tetrahydropyrido[4,3-d]pyrimidin-7-yl]phenyl}pyridine-3-carbonitrile] | 6.22 | 6.32
3 | Cc1ncc2c(n1)C[C@@](C)(c1cc(-c3cccc(C#N)c3)cs1)NC2=N [Example 23, 3-{5-[(7S)-5-imino-2,7-dimethyl-5,6,7,8-tetrahydropyrido[4,3-d]pyrimidin-7-yl]thiophen-3-yl}benzonitrile] | 6.82 | 7.06
4 | C[C@@]1(c2cc(-c3cncc(C#N)c3)cs2)Cc2nc(C3CC3)ncc2C(=N)N1 [Example 35, 5-{5-[(7S)-2-cyclopropyl-5-imino-7-methyl-5,6,7,8-tetrahydropyrido[4,3-d]pyrimidin-7-yl]thiophen-3-yl}pyridine-3-carbonitrile] | 6.65 | 6.85
5 | C[C@@]1(c2cc(-c3cccnc3)ccc2F)Cc2ncncc2C(=N)N1 [Example 10, (7S)-7-(2-fluoro-5-pyridin-3-ylphenyl)-7-methyl-7,8-dihydropyrido[4,3-d]pyrimidin-5(6H)-imine] | 6.13 | 5.93

Molecules with a higher pKi [1], results first:

Row | pKi [1] | pKi [2] | SMILES
6 | 7.24 | 7.64 | C[C@@]1(c2cc(-c3cccc(C#N)c3)cs2)Cc2nc(C(F)(F)F)ncc2C(=N)N1 [Example 40, 3-{5-[(7S)-5-imino-7-methyl-2-(trifluoromethyl)-5,6,7,8-tetrahydropyrido[4,3-d]pyrimidin-7-yl]thiophen-3-yl}benzonitrile]
7 | 7.31 | 7.67 | C[C@@]1(c2sc(-c3cccc(C#N)c3)cc2Cl)Cc2nc(C3CC3)ncc2C(=N)N1 [Example 36, 3-{4-chloro-5-[(7S)-2-cyclopropyl-5-imino-7-methyl-5,6,7,8-tetrahydropyrido[4,3-d]pyrimidin-7-yl]thiophen-2-yl}benzonitrile]
8 | 6.89 | 7.18 | C[C@@]1(c2cc(-c3cccc(C#N)c3)cs2)Cc2nc(C3CC3)ncc2C(=N)N1 [Example 32, 3-{5-[(7S)-2-cyclopropyl-5-imino-7-methyl-5,6,7,8-tetrahydropyrido[4,3-d]pyrimidin-7-yl]thiophen-3-yl}benzonitrile]
9 | 7.65 | 8.70 | COc1cccc2cc(-c3cc(Cl)c([C@]4(C)Cc5nc(C6CC6)ncc5C(=N)N4)s3)[nH]c12 [Example 38, (7S)-7-[3-chloro-5-(7-methoxy-1H-indo1-2-yl)thiophen-2-yl]-2-cyclopropyl-7-methyl-7,8-dihydropyrido[4,3-d]pyrimidin-5(6H)-imine]
